Measured values from US20110059869A1, “Method for Increasing Enzymatic Reactivity” (RIKEN, priority 2008, published 2011).

Key:
Type in all cases: biochemical
[1] = test system: XhoI, PstI, HindIII, and EcoRI; experiment: DNA cleavage reactions by various restriction enzymes on bead and plate surfaces; conditions: 0.6 M trehalose vs none, all enzymes
Experimental: Differences in activity based on the type of enzyme in reactions under conditions where trehalose was present and absent and for various reactions surface shapes were examined. XhoI, PstI, HindIII, and EcoRI were employed as restriction enzymes to conduct reactions cleaving the same site on a DNA fragment with different enzymes (Scheme 8).
Cleavage reactions by various restriction enzymes were conducted on biotin-labeled DNA fragments I, II, and III (Seq. ID Nos. 4 to 6, Scheme 4) on bead surfaces. […] Paramagnetic streptavidin beads were washed with accessory 1× binding buffer, recovered with a magnetic stand to remove the supernatant, and suspended in the same buffer. […] The precipitate of DNA fragments obtained was dissolved in 1× TE (pH 7.5) and analyzed with Bioanalyzer DNA 1000 assay (Agilent Technologies).
Biotin-labeled DNA fragments II and III (Seq. ID Nos. 5 and 6, Scheme 4) were subjected to cleavage reactions by different restriction enzymes on horizontal streptavidin-coated plate surfaces. […] The precipitate of DNA fragments obtained was dissolved in 1× TE (pH 7.5) and analyzed with Bioanalyzer DNA 1000 assay (Agilent Technologies).

[2] = test system: sequencing enzyme reaction solution of a Genome Sequencer FLX system; experiment: Sequencing reaction of the 454 sequencing system (Genome Sequencer FLX); conditions: trehalose 0.15 M and 0.3 M in sequencing reaction vs none
Experimental: In the 454 sequencing system described in 11 above, trehalose was added to the reaction solution to a final concentration of 0.3 M, the sequencing reaction was conducted, and the effect on the sequencing level was observed.
D(+)-trehalose was added to the sequencing enzyme reaction solution of a Genome Sequencer FLX system and the effects were measured. Two experiments were conducted with final D(+)-trehalose concentrations of 0.15 M and 0.3 M. The ratio of the read length to the decodable sample was employed for comparison.
The D(+)-trehalose employed was D(+)-trehalose dihydrate (201-02253 reagent grade) (Wako). A GS LR 25 Sequencing Kit (502906) was employed for sequencing with the Genome Sequencer FLX system. The samples employed here were a PolyA minus full length cDNA library prepared in-house and human genome prepared according to the manufacturer's protocol.
The D(+)-trehalose dihydrate (201-02253 reagent grade) (Wako) was added in the following proportion to the Buffer CB among the reagents contained in the GS LR 25 Sequencing Kit (502906).
The mixture was stirred with a magnetic stirrer. Once dissolution had been visually confirmed, the mixed solution was passed through a filter (filter pore system 0.22 micrometer). Following filtration, precisely the required 2× 1000 mL quantities were collected from the mixed solution. […]

DNA polymerase = experiment: 454 sequencing system, emulsion PCR on beads
Experimental: In the 454 sequencing system (Scheme 10), a DNA template was adsorbed onto spherical beads, immobilized, and subjected to enveloped amplification in a water-in-oil emulsion (emulsion PCR). Accordingly, the change in the sequencing analysis level when trehalose was added in emulsion PCR was examined.
In emulsion PCR, DNA is bonded by complementarily interaction with oligoprimer immobilized on beads and enveloped in a water-in-oil emulsion to form microreactors each comprised of a single bead and a single DNA fragment. An amplification reaction based on the DNA polymerase results in the amplification of each DNA fragment into several million copies per bead. Trehalose was added to a final concentration of 0.6 M to the reaction solution and the amplification reaction was conducted to examine the effect on the sequence analysis results (Scheme 11).
The samples employed were DNA fragments that had been obtained by PCR amplification of cDNA obtained by reverse transcription of short RNA (FIG. 11). The results obtained by this reaction are shown in FIGS. 12, 13, and 14, as well as in Table 2.
In the 454 sequencing system described in 11 above, trehalose was added to a final concentration of […] to the reaction solution, an amplification reaction was conducted, and the effect on the level of sequencing was examined.

[3] = 0.3 M trehalose in emulsion PCR vs none
[4] = 0.6 M trehalose in emulsion PCR
[5] = trehalose 0.6 M in emulsion PCR, Region 2

OC[C@H]1O[C@H](O[C@H]2O[C@H](CO)[C@@H](O)[C@H](O)[C@H]2O)[C@H](O)[C@@H](O)[C@@H]1O [trehalose, D(+)-trehalose]
enzymatic activity in cleavage reactions [1]: increased activity
number of sequences [2]: increased the number of sequences
long fragments (sequence length) (DNA polymerase; [3]): increase in long fragments
number of sequences (DNA polymerase; [3]): increased the number of sequences
short fragments (sequence length) (DNA polymerase; [3]): reduction in short fragments
DNA amplification wells (DNA polymerase; 0.6 M trehalose (+) compared to trehalose (−)): increasing the DNA amplification wells
number of sequences and size of the regions that were decoded (DNA polymerase; 0.6 M trehalose (+) relative to trehalose (−)): increasing the number of sequences and the size of the regions that were decoded
number of sequences read in sample DNA, increase relative to no trehalose (DNA polymerase; [4]): about 1.6 fold
target regions contained in DNA fragments (tags) analyzed (DNA polymerase; [4]): more target regions were contained
Keypass Wells (DNA polymerase; [5]): 341,546
Passed Filter Wells (DNA polymerase; [5]): 207,398
Raw Wells (DNA polymerase; [5]): 364,898
